# Experimental data reported in patent publication US20240245736A1, “COMPOSITIONS AND METHODS FOR REDUCING BLOOD ALCOHOL CONTENT” (LIFE WELL LIVED, LLC, priority 2012, published 2024).
# Experiment: BAC scores by breathalyzer and observed behavior in subjects who had voluntarily consumed alcohol, compared with projected BAC
# Assay type: in vivo, human
# Design: actual BAC score / actual BAC: unit not given here
# Conditions: for signs of intoxication: twenty minutes after administration; for effect on the subject's BAC score, summary of the experiments: actual vs projected BAC over the course of the experiment; for change in BAC twenty minutes after administration: summary over subjects
# Excerpt: The following experiments involved subjects who voluntarily consumed alcoholic beverages. The subjects chose the type and amount of alcohol that was consumed, as well as the rate at which the alcohol was consumed. At the point when the subjects started to feel effects of their alcohol consumption and chose to stop consuming alcohol, the subjects voluntarily consumed a composition that contained a source of NAD+, Lactobacillus, Bifidobacterium, or a combination of two or more of those ingredients. Projected BAC scores were calculated approximately every twenty minutes using an online BAC calculator provided by the Wisconsin Department of Transportation, which provides a projected BAC based on factors such as the subject's weight, sex, alcohol consumed, rate of alcohol consumed, and food consumed. BAC scores were also quantitatively measured approximately every twenty minutes using a breathalyzer. The projected BAC score served as a negative control because it estimates the change in BAC that is expected to occur over time after a subject stops consuming alcohol. Changes in each subject's behavior were also observed over the course of the experiment.
# The ingredients that were administered to the subjects are commercially available and sold for human consumption. In the following experiments, NAD+ was provided by administering 5 mL of Liquid CoQ10, which is made by NOW Foods and contains 5 mg NAD+ in the 5 mL dose. To administer Lactobacillus, the subjects were given two Culturelle® Health & Wellness capsules, each of which contains Lactobacillus GG (10 billion cells). To administer Bifidobacterium, subjects were given two capsules of Align® Bifantis® Bifidobacterium infantis 35624, which contain 1 billion cfu per capsule. To administer Lactobacillus and Bifidobacterium, subjects were given 1-2 capsules of Dr. Mercola's® Complete Probiotics capsules, each of which contains 35 billion cells including the following species: Lactobacillus acidophilus DDS-1, Lactobacillus casei, Lactobacillus plantarum, Lactobacillus salivarius, Lactobacillus rhamnosus, Lactobacillus brevis, Bifidobacterium lactis, Bifidobacterium longum, Bifidobacterium bifidum, and Streptococcus thermophilus. Subjects were also given 5 mg of zinc, which was provided in liquid form.
compound,measurement,setting,value
"NC(=O)c1ccc[n+]([C@@H]2O[C@H](COP(=O)([O-])OP(=O)(O)OC[C@H]3O[C@@H](n4cnc5c(N)ncnc54)[C@H](O)[C@@H]3O)[C@@H](O)[C@H]2O)c1 [NAD+, nicotinamide adenine dinucleotide, reference compound]",actual BAC score,"FIG. 1, person, 198 pounds, beer and wine, 11:12, twenty minutes after administration, BAC at administration 0.089, projected 0.084",0.082
same,"effect on the subject's BAC score, actual vs projected",FIG. 1 subject,no effect
same,signs of intoxication,FIG. 1 subject,continued to exhibit signs of intoxication
same,actual BAC score,"FIG. 2, person, 188 pounds, beer, 11:12, twenty minutes after administration, BAC at administration 0.085, projected 0.085",0.086
same,"effect on the subject's BAC score, actual vs projected",FIG. 2 subject,minimal or no effect
same,signs of intoxication,FIG. 2 subject,continued to exhibit signs of intoxication
same,actual BAC score,"FIG. 3, person, 169 pounds, beer and vodka, 11:12, twenty minutes after administration, BAC at administration 0.086, projected 0.087",0.086
same,"effect on the subject's BAC score, actual vs projected",FIG. 3 subject,little effect
same,signs of intoxication,FIG. 3 subject,continued to exhibit signs of intoxication
same,actual BAC,"FIG. 9, person, 182 pounds, beer and vodka, 11:32, 40 minutes after NAD+ at 10:52 (BAC 0.088), before Lactobacillus and Bifidobacterium",0.056
same,"effect on the subject's BAC score, summary of the experiments",,no effect or only a minimal effect
same,change in BAC twenty minutes after administration,,increase in BAC
Bifidobacterium,actual BAC,"FIG. 7, person, 146 pounds, wine, 1:20, twenty minutes after administration, BAC at administration 0.159, projected 0.157",0.151
same,"effect on the subject's BAC score, actual vs projected",FIG. 7 subject,little effect
same,actual BAC,"FIG. 8, person, 171 pounds, 12:40, twenty minutes after administration, BAC at administration 0.13, projected 0.132",0.125
same,"effect on the subject's BAC score, actual vs projected",FIG. 8 subject,little effect
same,"effect on the subject's BAC score, summary of the experiments",,no effect or only a minimal effect
same,change in BAC twenty minutes after administration,,increase in BAC
Lactobacillus,actual BAC score,"FIG. 4, person, 122 pounds, wine and vodka, 7:25, twenty minutes after administration, BAC at administration 0.086, projected 0.084",0.082
same,"effect on the subject's BAC score, actual vs projected",FIG. 4 subject,no effect
same,signs of intoxication,FIG. 4 subject,continued to exhibit signs of intoxication
same,actual BAC score,"FIG. 5, person, 155 pounds, beer and wine, 7:25, twenty minutes after administration, BAC at administration 0.13, projected 0.129",0.12
same,"effect on the subject's BAC score, actual vs projected",FIG. 5 subject,little effect
same,actual BAC score,"FIG. 6, person, 169 pounds, beer and vodka, 7:25, twenty minutes after administration, BAC at administration 0.086, projected 0.074",0.067
same,"effect on the subject's BAC score, actual vs projected",FIG. 6 subject,little effect
same,"effect on the subject's BAC score, summary of the experiments",,no effect or only a minimal effect
same,change in BAC twenty minutes after administration,,increase in BAC
